One assay addresses T1, 5-HT1c receptor (Bos taurus, UniProt A0AAA9SBU1).
T1 sequence (A0AAA9SBU1 33-457): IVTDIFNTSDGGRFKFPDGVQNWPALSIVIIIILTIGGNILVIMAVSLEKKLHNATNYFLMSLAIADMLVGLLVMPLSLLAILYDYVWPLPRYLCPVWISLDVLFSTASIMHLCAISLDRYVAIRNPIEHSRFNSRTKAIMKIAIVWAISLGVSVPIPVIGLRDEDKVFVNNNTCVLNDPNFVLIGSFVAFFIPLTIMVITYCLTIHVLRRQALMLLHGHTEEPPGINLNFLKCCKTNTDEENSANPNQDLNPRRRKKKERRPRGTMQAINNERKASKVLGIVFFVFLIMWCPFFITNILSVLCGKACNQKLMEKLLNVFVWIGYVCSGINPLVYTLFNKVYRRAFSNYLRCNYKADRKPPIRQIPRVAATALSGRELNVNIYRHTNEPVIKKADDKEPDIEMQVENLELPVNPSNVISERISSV
The assay can be described thus: Assay for 5-HT1c affinity, radioligand binding (selectivity against 5-HT2 receptor assay). To be noted: low IC50 in the 5-HT1c receptor assay and a higher IC50 in the 5-HT2 receptor assay. Also noted: species or system beef.

The target of the next assay is T2, 5HT2B (Homo sapiens, UniProt P41595).
T2 construct: expressed in transfected cells
The assay can be described thus: Cell assay using human cells, 5HT2B (radioligand binding). The conditions noted are these: Table I.

The target in the next assay is T3, 5HT2A (Homo sapiens, UniProt P28223).
T3 construct: expressed in transfected cells
Description: Cell assay using human cells, 5HT2A. Type of assay: binding. To be noted: Table I. As to the method: (§1) The Kd and Bmax values from the saturation assays were determined for best fit to a one-site or a two-site binding model using a partial F-test. De Lean, A., A. A. Hancock, and R. J. Lefkowitz, Mol. Pharmacol. 21:5-16 (1981). The following equation was used for a one-site binding model, [formula] where Bound=amount of [^3 H]5-HT specifically bound, Bmax =maximum number of binding sites, Kd =equilibrium dissociation constant and [L]=free concentration of [^3 H]5-HT, or a two-site binding model, [formula] where Bound=amount of [^3 H]5-HT specifically bound, Bmax1 =maximum number of high affinity binding sites, Bmax2 =maximum number of low affinity binding sites, Kd1 =equilibrium dissociation constant for the high affinity site, Kd2 =equilibrium dissociation constant for the low affinity site and [L]=free concentration of [^3 H]5-HT. The IC50 values from the competition assays, the binding parameters for the IP3 standard curve and the EC50 and Emax values from the IP3 assays were determined by nonlinear regression analysis of four parameter logistic equations (Systat, Systat Inc, Evanston, Ill.). De Lean, A., A. A. Hancock, and R. J. Lefkowitz, Mol. Pharmacol., 21:5-16 (1981). The IC50 values were converted to Ki values using the Cheng-Prusoff equation. Cheng, Y., and W. H. Prusoff, Biochem. Pharmacol., 22:3099-3108 (1973).
(§2) The following Cell assays use Human Cells

A further assay has as its target T4, 5HT2C (Homo sapiens, UniProt P28335).
T4 construct: expressed in transfected cells
T4 sequence (P28335 33-458): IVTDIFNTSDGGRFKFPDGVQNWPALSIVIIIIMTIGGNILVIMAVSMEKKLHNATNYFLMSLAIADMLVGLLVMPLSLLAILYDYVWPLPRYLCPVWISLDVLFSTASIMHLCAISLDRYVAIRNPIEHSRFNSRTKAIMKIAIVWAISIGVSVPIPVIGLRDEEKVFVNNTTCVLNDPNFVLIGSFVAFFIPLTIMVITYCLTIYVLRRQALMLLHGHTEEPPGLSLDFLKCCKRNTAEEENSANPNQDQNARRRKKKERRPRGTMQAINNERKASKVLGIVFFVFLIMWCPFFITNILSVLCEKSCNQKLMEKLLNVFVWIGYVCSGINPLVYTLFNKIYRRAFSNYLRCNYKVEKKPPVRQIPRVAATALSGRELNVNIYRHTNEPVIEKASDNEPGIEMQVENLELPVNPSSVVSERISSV
Description: Cell assay using human cells, 5HT2C. To be noted: Table I. Type of assay: binding. On the procedure:
as §1, §2

Structures can show the parent of a compound that is named as a salt.

T2 sequence (P41595 whole entry): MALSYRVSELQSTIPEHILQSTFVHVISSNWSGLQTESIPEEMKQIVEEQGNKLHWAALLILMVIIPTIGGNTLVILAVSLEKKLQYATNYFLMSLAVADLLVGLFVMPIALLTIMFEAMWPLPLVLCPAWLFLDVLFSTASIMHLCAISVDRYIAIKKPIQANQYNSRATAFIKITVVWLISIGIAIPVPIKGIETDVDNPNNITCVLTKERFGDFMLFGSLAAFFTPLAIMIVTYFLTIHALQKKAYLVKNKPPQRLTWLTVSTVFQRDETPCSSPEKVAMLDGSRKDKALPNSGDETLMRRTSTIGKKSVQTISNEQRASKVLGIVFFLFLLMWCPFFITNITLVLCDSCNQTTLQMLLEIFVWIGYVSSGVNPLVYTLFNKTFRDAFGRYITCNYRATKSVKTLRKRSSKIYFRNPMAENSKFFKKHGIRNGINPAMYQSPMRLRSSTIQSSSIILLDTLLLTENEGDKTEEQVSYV
T3 sequence (P28223 whole entry): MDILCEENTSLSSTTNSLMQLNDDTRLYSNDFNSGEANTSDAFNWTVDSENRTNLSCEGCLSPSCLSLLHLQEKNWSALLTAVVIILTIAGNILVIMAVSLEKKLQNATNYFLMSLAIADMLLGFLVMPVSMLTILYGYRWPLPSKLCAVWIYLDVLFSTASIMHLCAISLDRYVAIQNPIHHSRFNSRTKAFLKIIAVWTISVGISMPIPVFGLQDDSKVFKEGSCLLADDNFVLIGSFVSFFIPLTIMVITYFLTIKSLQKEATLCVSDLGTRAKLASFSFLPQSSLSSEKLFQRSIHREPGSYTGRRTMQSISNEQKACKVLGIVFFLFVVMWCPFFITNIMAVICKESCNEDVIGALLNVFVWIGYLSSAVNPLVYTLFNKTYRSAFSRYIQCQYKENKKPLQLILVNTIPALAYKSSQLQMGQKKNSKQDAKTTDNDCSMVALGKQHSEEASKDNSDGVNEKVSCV
Description for 5-HT1c receptor: Beef brain was removed immediately after slaughter, and choroid plexus were dissected over ice. […] The brain of each was immediately removed and the cerebral cortex was dissected over ice. Tissues were homogenized in 9 volumes of 0.32 mol/L sucrose and centrifuged at 1,000×g for 10 minutes. The supernatant was centrifuged at 17,000 x g for 20 minutes. The pellet was suspended in 100 volumes of 50 mM Tris-HCl (pH7.4), incubated at 37° C. for 10 minutes and centrifuged at 50,000×g for 10 minutes, and the process was repeated three times. The final pellets were frozen at -70° C. and used within 2 weeks. Pellets were rehydrated with physiological buffer prior to use.
For 5-HT1c receptor assays increasing concentrations of experimental compound, 50 mM Tris HCl buffer pH 7.4 , and tritiated mesulergine (2.0 nM) (^3 H ligand) were combined in polystyrene tubes at room temperature. The reaction was initiated by the addition of the resuspended choroid plexus tissue which had been preincubated at 37° C. for 20 minutes. The reaction mixture was incubated in a 37° C. water bath for 15 minutes.
The reactions were terminated by rapid filtration, (Brandel Cell Harvestor), through Whatman GF/B glass filters that had been presoaked in Tris buffer pH 7.4. The filters were then washed 2 times with 5 ml of ice cold Tris buffer pH 7.4. Washed filters were placed in scintillation vials and 10 ml RedySolv, (Brandel), was added and samples were counted in a Searle D-300 beta counter. Means and standard error statistics were calculated for triplicate experimental determinations in certain cases. Mean values were obtained from three or more separate determinations. The incubation time for the reaction mixture was 15 minutes at 37° C.

Turning to `Cc1ccc2[nH]cc([C@@H]3CCCC[C@H]3N)c2c1.Cl` (relative stereo) [Example 3, Trans-3-(2-amino-cyclohexyl)-5-methylindole, hydrochloride], the 5-HT1c selective result at 5-HT1c receptor was “particularly 5-HT1c selective”.
Still for that read-out and setting: the entry for `Cl.N[C@@H]1CCCC[C@H]1c1c[nH]c2c(Cl)cccc12` (relative stereo) [Example 4, Trans-3-(2-amino-cyclohexyl)-7-chloroindole, hydrochloride] is “particularly 5-HT1c selective”.
For the molecule `Cc1ccc2[nH]c3c(c2c1)[C@@H]1CCCC[C@H]1NC3` (relative stereo) [Example 6, Trans-10-methyl-2,3,4,4a,5,6,7,11c-octahydro-1H-indolo[2,3-c] quinoline, hydrochloride], the 5-HT1c selective result on 5-HT1c receptor is reported as “particularly 5-HT1c selective”.
`Clc1cccc2c3c([nH]c12)CN[C@@H]1CCCC[C@@H]31` (relative stereo) [Example 7, Trans-8-chloro-2,3,4,4a,5,6,7,11c-octahydro-1 H-indolo[2,3-c]quinoline, hydrochloride]: the results for the inhibitory constant (Ki) on 5HT2B, at 5HT2A and on 5HT2C were 668 nM, 278 nM and 977 nM, respectively. For the same molecule, the 5-HT1c selective entry on 5-HT1c receptor is given as “particularly 5-HT1c selective”.
Regarding `COc1ccc(CC2N[C@@H]3CCC[C@H]3c3c2[nH]c2ccc(C)cc32)cc1OC` (relative stereo) [Example 8, Trans-5-(3,4-dimethoxybenzyl)-9-methyl-1,2,3,4,4a,5,6,10c-octahydrocyclopenta[a]pyrido [3,4-b]indole, hydrochloride], the Ki on 5HT2B turned out to be 9.56 nM; at 5HT2A, 124 nM; at 5HT2C, 221 nM.
With `COc1ccc(CC2N[C@@H]3CCC[C@H]3c3c2[nH]c2c(Cl)cccc32)cc1OC` (relative stereo) [Example 9, Trans-7-chloro-5-(3,4-dimethoxybenzyl)-1,2,3,4,4a,5,6,10c-octahydrocyclopenta[a]pyrido [3,4-b]indole, hydrochloride], the Ki was 52.5 nM at 5HT2B, 53.6 nM at 5HT2A and 203 nM at 5HT2C.
Consider `COc1ccc(CC2N[C@@H]3CCC[C@H]3c3c2[nH]c2c(C)cc(C)cc32)cc1OC` (relative stereo) [Example 10, Trans-5-(3,4-dimethoxybenzyl)-7,9-dimethyl-1,2,3,4,4a,5,6,10c-octahydrocyclopenta[a]pyrido [3,4-b]indole, hydrochloride], for which the inhibition constant Ki stood at 106 nM on 5HT2B, 556 nM at 5HT2A and 1120 nM on 5HT2C. Besides, the 5-HT1c selective result on 5-HT1c receptor is reported as “particularly 5-HT1c selective”.
On to `COc1ccc(CC2N[C@@H]3CCCC[C@H]3c3c2[nH]c2ccc(C)cc32)cc1OC` (relative stereo) [Example 11, Trans-6-(3,4-dimethoxybenzyl)-10-methyl-2,3,4,4a,5,6,7,11c-octahydro-1H-indolo[2,3-c]quinoline, hydrochloride], for which the Ki was 16.4 nM on 5HT2B, 293 nM on 5HT2A and 352 nM on 5HT2C.
For `COc1ccc(CC2N[C@@H]3CCCC[C@H]3c3c2[nH]c2c(Cl)cccc32)cc1OC` (relative stereo) [Example 12, Trans-8-chloro-6-(3,4-dimethoxybenzyl)-2,3,4,4a,5,6,7,11c-octahydro-1H-indolo[2,3-c]quinoline, hydrochloride] the same measures were 121 nM, 172 nM and 783 nM.
In the case of `COc1ccc(CC2N[C@@H]3CCCC[C@H]3c3c2[nH]c2c(C)cc(C)cc32)cc1OC` (relative stereo) [Example 13, Trans-6-(3,4-dimethoxybenzyl)-8,10-dimethyl-2,3,4,4a,5,6,7,11c-octahydro-1H-indolo[2,3-c]quinoline, hydrochloride], the values for the inhibitory constant (Ki) at 5HT2B, at 5HT2A and on 5HT2C were 168 nM, 917 nM and 2170 nM, respectively. For the same molecule, the 5-HT1c selective result on 5-HT1c receptor is “particularly 5-HT1c selective”.
As for `COc1ccc(CC2N[C@@H]3CCCCC[C@H]3c3c2[nH]c2ccc(C)cc32)cc1OC` (relative stereo) [Example 14, Trans-7-(3,4-dimethoxybenzyl)-11-methyl-1,2,3,4,5,5a,6,7,8,12a-decahydrocyclohepta[a]pyrido[3,4-b]indole, hydrochloride], the inhibition constant (Ki) was 3520 nM on 5HT2B, 1450 nM at 5HT2A and 9250 nM at 5HT2C.
Regarding `Cc1ccc2[nH]c3c(c2c1)[C@@H]1CCC[C@H]1NC3Cc1cccc2ccccc12` (relative stereo) [Example 15, Trans-9-methyl-5-(1-naphthylmethyl)-1,2,3,4,4a,5,6,10c-octahydrocyclopenta[a]pyrido [3,4]-blindole, hydrochloride], the Ki on 5HT2A was determined as 33 nM; on 5HT2C it was 52.1 nM.
With `Cc1ccc2[nH]c3c(c2c1)[C@@H]1CCCC[C@H]1NC3Cc1cccc2ccccc12` (relative stereo) [Example 16, Trans-10-methyl-6-(1-naphthylmethyl)-2,3,4,4a,5,6,7,11c-octahydro-1H-indolo[2,3-c]quinoline, hydrochloride], the 5-HT1c selective entry at 5-HT1c receptor is recorded as “particularly 5-HT1c selective”.
With `Cc1cc(C)c2[nH]c3c(c2c1)[C@@H]1CCCC[C@H]1NC3Cc1cccc2ccccc12` (relative stereo) [Example 17, Trans-8,10-dimethyl-6-(1-naphthylmethyl)-2,3,4,4a,5,6,7,11c-octahydro-1H-indolo[2,3-c]quinoline, hydrochloride], the inhibition constant (Ki) on 5HT2B was determined as 367 nM; at 5HT2A it was 264 nM; at 5HT2C, 1110 nM.
As for `COc1cc2c(cc1OC)CC1(CC2)N[C@H]2CCCC[C@@H]2c2c1[nH]c1ccc(C)cc21` (relative stereo) [Example 18, Trans-spiro-6,6-[2-(3,4-dimethoxy)-1,2,3,4-tetrahydronaphthyl]-10-methyl-2,3,4,4a,5,6,7,11a-octahydro-1 H-indolo[2,3-c]quinidine, hydrochloride], the inhibitory constant (Ki) was determined as 178 nM on 5HT2B (hydrochloride), 363 nM on 5HT2A (hydrochloride) and 325 nM on 5HT2C (hydrochloride).
The like results for `COc1cc2c(cc1OC)CC1(CC2)N[C@H]2CCCC[C@@H]2c2c1[nH]c1ccc(C)cc21` (single isomer, unassigned; isomer 18) [Isomer 18(1), Trans-spiro-6,6-[2-(3,4-dimethoxy)-1,2,3,4-tetrahydronaphthyl]-10-methyl-2,3,4,4a,5,6,7,11a-octahydro-1 H-indolo[2,3-c]quinidine, hydrochloride] were, in that order, 143 nM, 153 nM and 138 nM.
The like results for `COc1cc2c(cc1OC)CC1(CC2)N[C@H]2CCCC[C@@H]2c2c1[nH]c1ccc(C)cc21` (single isomer, unassigned; isomer 18) [Isomer 18(2), Trans-spiro-6,6-[2-(3,4-dimethoxy)-1,2,3,4-tetrahydronaphthyl]-10-methyl-2,3,4,4a,5,6,7,11a-octahydro-1 H-indolo[2,3-c]quinidine, hydrochloride] were, in that order, 2890 nM, 1970 nM and 6210 nM.

One may read the Ki as the dissociation constant of the complex between target and ligand, obtained from inhibition or displacement. Lower therefore signals tighter binding.

The record behind these values is US5861410A, “Tetrahydro-beta-carbolines” (Eli Lilly and Company, priority 1997, dated 1999).
